In general, IC50 refers to the point on the concentration scale where inhibition reaches its midpoint.

The target in one assay is T1, L858R mutant EGFR (Homo sapiens, UniProt P00533, L858R).
T1 construct: Constructs spanning residues 696-1022 of the human EGFR; GST (cleaved yes); made in house; host or cells: Sf9 insect cells
Kind of assay: HTRF-based EGFR biochemical assay. The note with it: relative to L858R/T790M and T790M mutants. The protocol:
EGFR biochemical assays are carried out using a homogeneous time-resolved fluorescence (HTRF) assay. The reaction mixtures contain biotin-Lck-peptide substrate, wild type, or mutant EGFR enzyme in reaction buffer. Enzyme concentrations are adjusted to accommodate varying kinase activity and ATP concentrations. Compounds of the present disclosure are diluted into the assay mixture and IC50 values are determined using 12-point inhibition curves.
Constructs spanning residues 696-1022 of the human EGFR (including wild type and L858R, L858R/T790M, T790M, and T790M/V948R mutant sequences) were prepared in a GST-fusion format using the pTriEX system (Novagen) for expression in Sf9 insect cells essentially as described. […]
EGFR biochemical assays were carried out using a homogeneous time-resolved fluorescence (HTRF) assay as described previously. […] Five μL per well of the detection reagent containing 2.5 ng PT66K (Cis-bio) and 0.05 μg SAXL (Prozyme) were added, and the plates were then incubated at room temperature for 1 hour and read with an EnVision plate reader.
A general note: Time-resolved FRET reads energy transfer from a long-lived donor to a nearby acceptor.

The target of assay [1] is EGFR T790M/L858R Ba/F3 cell line (Homo sapiens, UniProt P00533, T790M/L858R, cells depend on it). Put plainly: Ba/F3 cell proliferation model. In kind it is cell-based, murine. The note with it: for Activity (% inhibition): combined with cetuximab (% cetuximab, 1.0 μM drug concentration with 1.0 μg/mL cetuximab). In outline:
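Murine Ba/F3 cells made IL-3-independent by retroviral EGFR L858R/T790M, selected in puromycin (2 μg/ml) and kept in RPMI 1640 with 10% FBS. Cells were exposed to serially diluted compound for 72 h, with growth read by MTS assay in six wells per point and ≥3 repeats. Sigmoidal dose-response non-linear regression gave the values.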

Assay [2] concerns the target Del/T790M Ba/F3 cell line (Homo sapiens, UniProt P00533, DEL746-750/T790M, cells depend on it). Put plainly: Ba/F3 cell proliferation model. In kind it is cell-based, murine. From the text:
(§1) The selectivity between wild-type EGFR and EGFR containing one or more mutations as described herein can also be measured using cellular proliferation assays where cell proliferation is dependent on kinase activity. For example, murine Ba/F3 cells transfected with a suitable version of wild-type EGFR (such as VIII; containing a WT EGFR kinase domain), or Ba/F3 cells transfected with L858R/T790M, Del/T790M/L718Q, L858R/T790M/L718Q, L858R/T790M/C797S, Del/T790M/C797S, L858R/T790M/I941R, or Exon 19 deletion/T790M can be used.
(§2) Cell lines are plated in media. The compounds of the present disclosure are then serially diluted and transferred to the cells. Cell viability is measured via a luminescent readout. Data is analyzed by non-linear regression curve-fitting.
(§3) The EGFR mutant L858R, Del E746_A750, L858R/T790M, DelE746_A750/T790M, L858R/T790M/C797S and Del/T790M/C797S Ba/F3 cells have been previously described (Zhou, W., Ercan, D., Chen, L., Yun, C. H., Li, D., Capelletti, M., Cortot, A. B., Chirieac, L., Iacob, R. E., Padera, R., et al. “Novel mutant-selective EGFR kinase inhibitors against EGFR T790M,” Nature 462, (2009), 1070-1074). All cell lines were maintained in RPMI 1640 (Cellgro; Mediatech Inc., Herndon, Calif.) supplemented with 10% FBS 100 units/mL penicillin, 100 units/mL streptomycin, and 2 mM glutamine. L858R cells were maintained in ACL-4 media (Invitrogen, Carlsbad, Calif.) supplemented with 5% FBS, 100 units/mL penicillin, 100 units/mL streptomycin, and 2 mM glutamine. The EGFR I941R mutation was introduced via site directed mutagenesis using the Quick Change Site-Directed Mutagenesis kit (Stratagene; La Jolla, Calif.) according to the manufacturer's instructions. All constructs were confirmed by DNA sequencing. The constructs were shuttled into the retroviral vector JP 1540 using the BD Creator™ System (BD Biosciences). Ba/F3 cells were infected with retrovirus and according to standard protocols, as described previously (Zhou et al, Nature 2009). Stable clones were obtained by selection in puromycin (2 μg/ml).
(§4) Growth and inhibition of growth was assessed by MTS assay and was performed according to previously established methods (Zhou et al., Nature 2009). The MTS assay is a colorimetric method for determining the number of viable cells that is based on the bioreduction of MTS by cells to a formazan product that is soluble in cell culture medium and can be detected spectrophotometrically. Ba/F3 cells of different EGFR genotypes were exposed to treatment for 72 hours and the number of cells used per experiment determined empirically and has been previously established (Zhou et al., Nature 2009). All experimental points were set up in six wells and all experiments were repeated at least three times. […] The curves were fitted using a non-linear regression model with a sigmoidal dose response.

In assay [3] the test system is EGFR Parental Ba/F3 cell line. Put plainly: Ba/F3 cell proliferation model. In kind it is cell-based, murine. To be noted: Mus musculus, BaF3; compound alone.
Excerpt: as §1, §2, §3, §4

Where [4] appears, read: compound alone, read-out: L858R/T790M IC50.
The mark [5] stands for this setting: read-out: L858R/T790M Cetuximab IC50, in combination with Cetuximab.
[6] abbreviates: compound alone, read-out: Del/T790M IC50.
Setting [7] is: read-out: Del/T790M Cetuximab IC50, in combination with Cetuximab.

Where two headings read alike, the source gives them in different places.

Sequence of EGFR T790M/L858R Ba/F3 cell line (P00533 whole entry T790M/L858R): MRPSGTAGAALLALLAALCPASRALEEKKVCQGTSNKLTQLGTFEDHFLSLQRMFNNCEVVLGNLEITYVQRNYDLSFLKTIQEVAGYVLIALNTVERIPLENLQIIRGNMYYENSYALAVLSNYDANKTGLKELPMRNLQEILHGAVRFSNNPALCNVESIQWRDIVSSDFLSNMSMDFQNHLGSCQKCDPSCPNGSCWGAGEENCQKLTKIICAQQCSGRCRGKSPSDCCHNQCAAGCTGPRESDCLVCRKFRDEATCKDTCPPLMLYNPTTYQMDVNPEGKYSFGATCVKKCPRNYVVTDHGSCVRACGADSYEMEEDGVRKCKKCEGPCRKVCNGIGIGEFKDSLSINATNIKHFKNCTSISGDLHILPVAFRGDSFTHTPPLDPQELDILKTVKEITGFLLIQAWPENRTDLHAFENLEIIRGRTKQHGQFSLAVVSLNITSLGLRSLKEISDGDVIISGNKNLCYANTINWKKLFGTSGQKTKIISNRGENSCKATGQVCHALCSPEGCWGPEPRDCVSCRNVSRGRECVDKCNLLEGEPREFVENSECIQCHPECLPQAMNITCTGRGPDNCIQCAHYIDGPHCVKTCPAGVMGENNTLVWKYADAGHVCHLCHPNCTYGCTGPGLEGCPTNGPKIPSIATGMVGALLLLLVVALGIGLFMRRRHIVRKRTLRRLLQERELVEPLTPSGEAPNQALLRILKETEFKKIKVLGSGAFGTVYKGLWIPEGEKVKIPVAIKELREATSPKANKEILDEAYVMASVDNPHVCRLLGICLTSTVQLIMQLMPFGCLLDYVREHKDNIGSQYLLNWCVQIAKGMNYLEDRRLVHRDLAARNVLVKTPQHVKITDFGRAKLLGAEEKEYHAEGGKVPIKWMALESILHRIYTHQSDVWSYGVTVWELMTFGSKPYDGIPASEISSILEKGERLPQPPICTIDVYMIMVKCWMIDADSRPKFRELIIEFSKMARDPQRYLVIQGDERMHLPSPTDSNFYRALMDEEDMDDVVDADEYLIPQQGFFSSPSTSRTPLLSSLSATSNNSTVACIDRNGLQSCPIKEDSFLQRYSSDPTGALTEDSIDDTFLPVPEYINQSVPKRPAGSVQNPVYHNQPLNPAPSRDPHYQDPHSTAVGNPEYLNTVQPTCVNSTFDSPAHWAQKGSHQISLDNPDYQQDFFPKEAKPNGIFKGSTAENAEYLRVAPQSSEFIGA
Sequence of Del/T790M Ba/F3 cell line (P00533 with tags, fused parts or gaps DEL746-750/T790M): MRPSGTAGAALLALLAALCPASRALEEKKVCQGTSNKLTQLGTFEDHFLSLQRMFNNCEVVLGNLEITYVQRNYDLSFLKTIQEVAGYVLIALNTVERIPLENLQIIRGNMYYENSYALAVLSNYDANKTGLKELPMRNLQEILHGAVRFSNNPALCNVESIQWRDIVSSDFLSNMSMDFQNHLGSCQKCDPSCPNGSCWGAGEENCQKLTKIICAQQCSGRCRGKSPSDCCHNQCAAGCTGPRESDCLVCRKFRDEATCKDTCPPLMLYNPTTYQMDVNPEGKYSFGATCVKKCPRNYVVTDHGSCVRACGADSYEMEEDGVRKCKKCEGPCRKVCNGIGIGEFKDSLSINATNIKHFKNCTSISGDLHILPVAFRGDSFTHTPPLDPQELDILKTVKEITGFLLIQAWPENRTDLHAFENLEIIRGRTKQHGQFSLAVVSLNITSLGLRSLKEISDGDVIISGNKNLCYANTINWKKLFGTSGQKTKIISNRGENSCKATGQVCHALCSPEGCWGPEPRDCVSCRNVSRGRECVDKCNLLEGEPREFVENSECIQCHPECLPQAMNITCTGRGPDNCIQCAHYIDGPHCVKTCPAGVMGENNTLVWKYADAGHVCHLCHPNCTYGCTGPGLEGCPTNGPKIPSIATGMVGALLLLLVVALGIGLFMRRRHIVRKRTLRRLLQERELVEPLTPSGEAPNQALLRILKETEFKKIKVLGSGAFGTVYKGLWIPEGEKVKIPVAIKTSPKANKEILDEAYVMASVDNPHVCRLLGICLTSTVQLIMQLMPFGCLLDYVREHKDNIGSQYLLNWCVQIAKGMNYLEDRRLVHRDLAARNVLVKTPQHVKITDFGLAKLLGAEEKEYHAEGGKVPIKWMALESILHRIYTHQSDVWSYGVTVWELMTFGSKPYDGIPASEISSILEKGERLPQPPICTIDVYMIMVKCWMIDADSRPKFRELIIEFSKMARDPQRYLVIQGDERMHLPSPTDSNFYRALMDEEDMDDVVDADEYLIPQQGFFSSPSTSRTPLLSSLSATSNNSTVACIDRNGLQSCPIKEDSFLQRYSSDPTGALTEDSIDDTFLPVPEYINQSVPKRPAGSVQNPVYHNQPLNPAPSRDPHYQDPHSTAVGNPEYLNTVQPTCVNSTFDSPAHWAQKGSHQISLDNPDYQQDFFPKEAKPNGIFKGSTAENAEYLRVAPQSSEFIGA
T1 sequence (P00533 696-1022 L858R): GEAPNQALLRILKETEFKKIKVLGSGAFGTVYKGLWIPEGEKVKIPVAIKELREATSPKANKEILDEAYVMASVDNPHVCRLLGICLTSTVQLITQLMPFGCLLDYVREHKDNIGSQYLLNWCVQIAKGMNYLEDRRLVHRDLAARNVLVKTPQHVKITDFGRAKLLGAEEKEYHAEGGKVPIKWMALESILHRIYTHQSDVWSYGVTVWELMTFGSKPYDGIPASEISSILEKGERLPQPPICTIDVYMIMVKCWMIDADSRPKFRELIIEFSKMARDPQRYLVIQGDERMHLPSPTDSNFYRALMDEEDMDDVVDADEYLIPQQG

As to `O=C(Nc1nccs1)C(c1ccccc1)N1Cc2ccccc2C1=O` (stereo not shown) [Compound A1], at L858R mutant EGFR, the “decreased potency against L858R mutant EGFR” value is “approximately 2 fold”.
For the compound `O=C(Nc1nccs1)[C@@H](c1ccccc1)N1Cc2ccc(-c3ccc(CN4CCNCC4)cc3)cc2C1=O` [Compound I-121, (R)-2-(1-oxo-6-(4-(piperazin-1-ylmethyl)phenyl)isoindolin-2-yl)-2-phenyl-N-(thiazol-2-yl)acetamide], in assay [1], the “Activity (% inhibition)” value is recorded as “D (a % inhibition of between about 0% to about 25%)”. The GI50 in assay [1] (setting [4]) was 1 to 10 µM; in assay [1] (setting [5]), under 0.5 µM; in assay [2] (setting [6]), 1 to 10 µM; in assay [2] (setting [7]), 1 to 10 µM. Further, the IC50 in assay [3] lay within 1 to 10 µM.
Take `O=C(Nc1nccs1)C(c1cccc(F)c1)N1Cc2ccc(-c3ccc4[nH]ccc4c3)cc2C1=O` (stereo not shown) [Compound I-122, 2-(6-(1H-indol-5-yl)-1-oxoisoindolin-2-yl)-2-(3-fluorophenyl)-N-(thiazol-2-yl)acetamide]: in assay [1], the “Activity (% inhibition)” value is “D (a % inhibition of between about 0% to about 25%)”. The GI50 in assay [1] (setting [4]) was 1 to 10 µM; in assay [1] (setting [5]), under 0.5 µM; in assay [2] (setting [6]) it was over 10 µM; in assay [2] (setting [7]) it was over 10 µM. Besides, the IC50 in assay [3] fell in the range of 1 to 10 µM.

Values taken from patent publication US10385019B2, “Inhibitors of EGFR and methods of use thereof” (Dana-Farber Cancer Institute, Inc., priority 2015, dated 2019).
